In ChEMBL document CHEMBL1629692, “Susceptibility of gram-negative pathogens isolated from patients with complicated intra-abdominal infections in the United States, 2007-2008: results of the Study for Monitoring Antimicrobial Resistance Trends (SMART)” (2010) one finds Activity data, which are given here for 6 molecules.

Format in all cases: functional
The subject of one test is Enterobacteriaceae. In words: Antimicrobial activity against Enterobacteriaceae Extended-Spectrum beta-lactamase positive assessed as percent susceptible isolates by agar dilution method. On the technique in general: In agar dilution, organisms are placed on agar that contains the substance at set levels.
The test system of test [1] is Acinetobacter sp. Briefly: Antimicrobial activity against Acinetobacter sp. assessed as percent susceptible isolates by agar dilution method.
In test [2] the test system is Klebsiella aerogenes. In words: Antimicrobial activity against Enterobacter aerogenes obtained from patient with complicated intra-abdominal infection assessed as percent susceptible isolates by agar dilution method.
Test [3] has as its system Escherichia coli. In words: Antimicrobial activity against Escherichia coli obtained from patient with complicated intra-abdominal infection assessed as percent susceptible isolates by agar dilution method.
Test [4] concerns Stenotrophomonas maltophilia. In words: Antimicrobial activity against Stenotrophomonas maltophilia assessed as percent susceptible isolates by agar dilution method.
Test [5] concerns Escherichia coli. Briefly: Antimicrobial activity against extended-spectrum beta-lactamase-negative Escherichia coli obtained from patient with complicated intra-abdominal infection assessed as percent susceptible isolates by agar dilution method.
Test [6] deals with Pasteurella sp. Briefly: Antimicrobial activity against Pasteurella sp. assessed as percent susceptible isolates by agar dilution method.
Test [7] concerns Citrobacter freundii. Briefly: Antimicrobial activity against Citrobacter freundii obtained from patient with complicated intra-abdominal infection assessed as percent susceptible isolates by agar dilution method.
For test [8], the system named is Proteus mirabilis. Briefly: Antimicrobial activity against extended-spectrum beta-lactamase-positive Proteus mirabilis assessed as percent susceptible isolates by agar dilution method.
Test [9] has as its system Klebsiella oxytoca. In words: Antimicrobial activity against extended-spectrum beta-lactamase-positive Klebsiella oxytoca assessed as percent susceptible isolates by agar dilution method.
Test [10] concerns Klebsiella pneumoniae. Briefly: Antimicrobial activity against extended-spectrum beta-lactamase-positive Klebsiella pneumoniae assessed as percent susceptible isolates by agar dilution method.
In test [11] the test system is Pseudomonas aeruginosa. In words: Antimicrobial activity against Pseudomonas aeruginosa assessed as percent susceptible isolates by agar dilution method.
Test [12] concerns Pseudomonas fluorescens. In words: Antimicrobial activity against Pseudomonas fluorescens assessed as percent susceptible isolates by agar dilution method.
In test [13] the test system is Klebsiella pneumoniae. In words: Antimicrobial activity against extended-spectrum beta-lactamase-negative Klebsiella pneumoniae assessed as percent susceptible isolates by agar dilution method.
Test [14] relates to Enterobacter cloacae. Briefly: Antimicrobial activity against Enterobacter cloacae obtained from patient with complicated intra-abdominal infection assessed as percent susceptible isolates by agar dilution method.
In test [15] the test system is Klebsiella pneumoniae. In words: Antimicrobial activity against Klebsiella pneumoniae assessed as percent susceptible isolates by agar dilution method.
Test [16] has as its system Escherichia coli. In words: Antimicrobial activity against extended-spectrum beta-lactamase-positive Escherichia coli obtained from patient with complicated intra-abdominal infection assessed as percent susceptible isolates by agar dilution method.
Test [17] deals with Serratia marcescens. In words: Antimicrobial activity against Serratia marcescens assessed as percent susceptible isolates by agar dilution method.
In test [18] the test system is Klebsiella pneumoniae. In words: Antimicrobial activity against extended-spectrum beta-lactamase-negative Klebsiella pneumoniae assessed as percent susceptible isolates by agar dilution method in presence of beta-lactamase inhibitor Tazobactam.
Test [19] relates to Klebsiella oxytoca. In words: Antimicrobial activity against extended-spectrum beta-lactamase-positive Klebsiella oxytoca assessed as percent susceptible isolates be agar dilution method in presence of beta-lactamase inhibitor Tazobactam.
In test [20] the test system is Escherichia coli. Briefly: Antimicrobial activity against extended-spectrum beta-lactamase-negative Escherichia coli obtained from patient with complicated intra-abdominal infection assessed as percent susceptible isolates by agar dilution method in presence of beta-lactamase inhibitor Tazobactam.
Test [21] concerns Acinetobacter sp. Briefly: Antimicrobial activity against Acinetobacter sp. assessed as percent susceptible isolates by agar dilution method in presence of beta-lactamase inhibitor Tazobactam.
The subject of test [22] is Pseudomonas fluorescens. Briefly: Antimicrobial activity against Pseudomonas fluorescens assessed as percent susceptible isolates by agar dilution method in presence of beta-lactamase inhibitor Tazobactam.
For test [23], the system named is Klebsiella aerogenes. In words: Antimicrobial activity against Enterobacter aerogenes obtained from patient with complicated intra-abdominal infection assessed as percent susceptible isolates by agar dilution method in presence of beta-lactamase inhibitor Tazobactam.
Test [24] deals with Pseudomonas aeruginosa. Briefly: Antimicrobial activity against Pseudomonas aeruginosa assessed as percent susceptible isolates by agar dilution method in presence of beta-lactamase inhibitor Tazobactam.
Test [25] relates to Klebsiella pneumoniae. In words: Antimicrobial activity against Klebsiella pneumoniae assessed as percent susceptible isolates by agar dilution method in presence of beta-lactamase inhibitor Tazobactam.
For test [26], the system named is Escherichia coli. In words: Antimicrobial activity against Escherichia coli obtained from patient with complicated intra-abdominal infection assessed as percent susceptible isolates by agar dilution method in presence of beta-lactamase inhibitor Tazobactam.
Test [27] has as its system Enterobacter cloacae. Briefly: Antimicrobial activity against Enterobacter cloacae obtained from patient with complicated intra-abdominal infection assessed as percent susceptible isolates by agar dilution method in presence of beta-lactamase inhibitor Tazobactam.
The test system of test [28] is Stenotrophomonas maltophilia. In words: Antimicrobial activity against Stenotrophomonas maltophilia assessed as percent susceptible isolates by agar dilution method in presence of beta-lactamase inhibitor Tazobactam.
The subject of test [29] is Pasteurella sp. In words: Antimicrobial activity against Pasteurella sp. assessed as percent susceptible isolates by agar dilution method in presence of beta-lactamase inhibitor Tazobactam.
Test [30] deals with Escherichia coli. In words: Antimicrobial activity against extended-spectrum beta-lactamase-positive Escherichia coli obtained from patient with complicated intra-abdominal infection assessed as percent susceptible isolates by agar dilution method in presence of beta-lactamase inhibitor Tazobactam.
Test [31] relates to Serratia marcescens. Briefly: Antimicrobial activity against Serratia marcescens assessed as percent susceptible isolates by agar dilution method in presence of beta-lactamase inhibitor Tazobactam.
Test [32] has as its system Citrobacter freundii. In words: Antimicrobial activity against Citrobacter freundii obtained from patient with complicated intra-abdominal infection assessed as percent susceptible isolates by agar dilution method in presence of beta-lactamase inhibitor Tazobactam.
The test system of test [33] is Klebsiella pneumoniae. Briefly: Antimicrobial activity against extended-spectrum beta-lactamase-positive Klebsiella pneumoniae assessed as percent susceptible isolates by agar dilution method in presence of beta-lactamase inhibitor Tazobactam.
Test [34] deals with Proteus mirabilis. In words: Antimicrobial activity against extended-spectrum beta-lactamase-positive Proteus mirabilis assessed as percent susceptible isolates by agar dilution method in presence of beta-lactamase inhibitor Tazobactam.

Take `CC(C)(O/N=C(\C(=O)N[C@@H]1C(=O)N2C(C(=O)[O-])=C(C[n+]3ccccc3)CS[C@H]12)c1csc(N)n1)C(=O)O` [CEFTAZIDIME]: the Activity is recorded as 31% with Enterobacteriaceae; 32% with Acinetobacter sp. [1]; 63% with Klebsiella aerogenes [2]; 96% in the test on Escherichia coli [3]; 32% in test [4]; 98% in the test with Escherichia coli [5]. For the same molecule, the Activity amounted to 32% in the test on Pasteurella sp. [6]; 72% in the test on Citrobacter freundii [7]; 94% with Proteus mirabilis [8]; 96% in the test on Klebsiella oxytoca [9]; 19% in the test on Klebsiella pneumoniae [10]; 76% in the test on Pseudomonas aeruginosa [11]. The Activity with Pseudomonas fluorescens [12] was 32%; with Klebsiella pneumoniae [13], 100%; in the test on Enterobacter cloacae [14], 66%; in the test with Klebsiella pneumoniae [15] it was 86%; in the test on Escherichia coli [16] it was 52%; in the test on Serratia marcescens [17], 100%.
For `CO/N=C(\C(=O)N[C@@H]1C(=O)N2C(C(=O)O)=C(CSc3nc(=O)c(O)nn3C)CS[C@H]12)c1csc(N)n1` [CEFTRIAXONE], the Activity with Enterobacteriaceae is given as 7%; with Acinetobacter sp. [1], 15%; in the test with Klebsiella aerogenes [2], 79%; with Escherichia coli [3] it was 96%; in test [4] it was 15%; in the test on Escherichia coli [5], 98%. In addition, the Activity in the test with Pasteurella sp. [6] was 15%; in the test with Citrobacter freundii [7], 67%; in the test with Proteus mirabilis [8] it was 100%; with Klebsiella oxytoca [9], 89%; in the test with Klebsiella pneumoniae [10], 19%; in the test with Pseudomonas aeruginosa [11], 17%. Further, the Activity worked out at 15% with Pseudomonas fluorescens [12]; 99% with Klebsiella pneumoniae [13]; 64% with Enterobacter cloacae [14]; 85% in the test on Klebsiella pneumoniae [15]; 38% in the test with Escherichia coli [16]; 100% in the test with Serratia marcescens [17].
`C[C@@H](O)[C@H]1C(=O)N2C(C(=O)O)=C(SCCNC=N)C[C@H]12` [IMIPENEM ANHYDROUS]: the Activity in the test with Acinetobacter sp. [1] is 69%; in the test on Klebsiella aerogenes [2], 100%; with Escherichia coli [3], 100%; in test [4], 69%; in the test with Escherichia coli [5] it was 100%; in the test on Pasteurella sp. [6], 69%. Also, the Activity with Citrobacter freundii [7] is recorded as 100%; in the test on Proteus mirabilis [8] it was 93%; with Klebsiella oxytoca [9] it was 100%; in the test on Klebsiella pneumoniae [10] it was 94%; with Pseudomonas aeruginosa [11], 78%; in the test with Pseudomonas fluorescens [12], 69%. Moreover, the Activity was found to be 100% in the test on Klebsiella pneumoniae [13]; 100% in the test with Enterobacter cloacae [14]; 99% with Klebsiella pneumoniae [15]; 100% in the test with Escherichia coli [16]; 100% in the test with Serratia marcescens [17].
On to `CCN1CCN(C(=O)N[C@@H](C(=O)N[C@@H]2C(=O)N3[C@@H]2SC(C)(C)[C@@H]3C(=O)O)c2ccccc2)C(=O)C1=O` [PIPERACILLIN], for which the Activity with Klebsiella pneumoniae [18] is on record as 97%; with Klebsiella oxytoca [19], 89%; in the test on Escherichia coli [20], 98%; with Acinetobacter sp. [21], 23%; with Pseudomonas fluorescens [22], 23%; in the test with Klebsiella aerogenes [23], 88%. The Activity with Pseudomonas aeruginosa [24] is on record as 83%; in the test on Klebsiella pneumoniae [25], 85%; in the test with Escherichia coli [26], 96%; in the test on Enterobacter cloacae [27] it was 69%; in [28], 23%; in the test on Pasteurella sp. [29], 23%. The Activity in the test with Escherichia coli [30] worked out at 62%; in the test with Serratia marcescens [31], 100%; in the test with Citrobacter freundii [32] it was 72%; with Klebsiella pneumoniae [33] it was 28%; with Proteus mirabilis [34] it was 100%.
As for `NCC[C@H](O)C(=O)N[C@@H]1C[C@H](N)[C@@H](O[C@H]2O[C@H](CN)[C@@H](O)[C@H](O)[C@H]2O)[C@H](O)[C@H]1O[C@H]1O[C@H](CO)[C@@H](O)[C@H](N)[C@H]1O` [AMIKACIN], the Activity with Acinetobacter sp. [1] was determined as 31%; in the test with Klebsiella aerogenes [2], 100%; with Escherichia coli [3], 98%; in [4], 31%; in the test on Escherichia coli [5], 100%; in the test with Pasteurella sp. [6], 31%. In addition, the Activity in the test with Citrobacter freundii [7] came to 100%; in the test on Proteus mirabilis [8] it was 100%; with Klebsiella oxytoca [9], 100%; with Klebsiella pneumoniae [10], 69%; in the test on Pseudomonas aeruginosa [11], 96%; in the test with Pseudomonas fluorescens [12], 31%. Besides, the Activity came to 100% with Klebsiella pneumoniae [13]; 99% in the test with Enterobacter cloacae [14]; 95% in the test with Klebsiella pneumoniae [15]; 71% with Escherichia coli [16]; 100% in the test with Serratia marcescens [17].
As for `CO/N=C(\C(=O)N[C@@H]1C(=O)N2C(C(=O)O)=C(COC(C)=O)CS[C@H]12)c1csc(N)n1` [CEFOTAXIME], the Activity was 6% in the test on Enterobacteriaceae; 8% with Acinetobacter sp. [1]; 79% with Klebsiella aerogenes [2]; 96% in the test with Escherichia coli [3]; 8% in test [4]; 99% in the test with Escherichia coli [5]. Also, the Activity in the test with Pasteurella sp. [6] is listed as 8%; in the test on Citrobacter freundii [7], 67%; in the test on Proteus mirabilis [8] it was 100%; in the test on Klebsiella oxytoca [9], 96%; in the test on Klebsiella pneumoniae [10] it was 19%; with Pseudomonas aeruginosa [11] it was 9%. Besides, the Activity in the test with Pseudomonas fluorescens [12] worked out at 8%; with Klebsiella pneumoniae [13], 99%; in the test on Enterobacter cloacae [14] it was 62%; with Klebsiella pneumoniae [15], 85%; in the test with Escherichia coli [16], 38%; with Serratia marcescens [17], 100%.
